Data set [1] concerns Mus musculus. Put plainly: Anti-atherosclerotic activity in high fat diet-induced C57BL/6 mouse model of hypercholesterolemia assessed as increase in ABCA1 mRNA expression in small intestine at 10 to 40 mg/kg, po administered for 12 weeks by RT-qPCR analysis. Type of data set: functional, organism-based.
Data set [2] has as its system Mus musculus. Briefly: Anti-atherosclerotic activity in high fat diet-induced C57BL/6 mouse model of hypercholesterolemia assessed as decrease in SCD1 mRNA expression in liver at 10 to 40 mg/kg, po administered for 12 weeks by RT-qPCR analysis. It counts as functional, organism-based.
For another data set, the system named is PBMC. Put plainly: Anti-atherosclerotic activity in C57BL/6 mouse PBMC assessed as inhibition of ox-LDL induced lipid accumulation at 10 uM incubated for 48 hrs by ORO staining based microscopic analysis. Type of data set: functional, cell-based.
For data set [3], the target named is T1, Oxysterols receptor LXR-beta (Rattus norvegicus) (UniProt Q62755).
T1 sequence (whole entry): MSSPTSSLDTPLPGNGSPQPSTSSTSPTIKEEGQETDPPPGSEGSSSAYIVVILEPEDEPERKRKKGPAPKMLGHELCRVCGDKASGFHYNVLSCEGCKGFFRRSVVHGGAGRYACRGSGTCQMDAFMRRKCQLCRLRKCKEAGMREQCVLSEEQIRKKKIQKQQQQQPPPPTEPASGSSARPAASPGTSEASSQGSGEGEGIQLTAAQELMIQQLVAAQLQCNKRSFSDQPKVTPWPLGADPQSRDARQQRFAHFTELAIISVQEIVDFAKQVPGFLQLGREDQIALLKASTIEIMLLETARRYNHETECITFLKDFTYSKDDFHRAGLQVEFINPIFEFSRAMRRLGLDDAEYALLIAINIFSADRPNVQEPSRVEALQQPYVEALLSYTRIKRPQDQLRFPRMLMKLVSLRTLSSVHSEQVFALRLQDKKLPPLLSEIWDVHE
Briefly: Agonist activity at rat LXRbeta transfected in HEK293T cells at 10 uM incubated for 20 hrs by luciferase reporter gene assay relative to control. It counts as cell-based. For orientation: In a reporter assay the amount or activity of a reporter protein is the signal.

For data set [4], the system named is Mus musculus. Put plainly: Anti-atherosclerotic activity in high fat diet-induced C57BL/6 mouse model of hypercholesterolemia assessed as decrease in ACC mRNA expression in liver at 10 to 40 mg/kg, po administered for 12 weeks by RT-qPCR analysis. It counts as functional, organism-based. A general note: In qPCR the cycle at which signal appears reflects the starting amount.

Data set [5] concerns RAW264.7. Briefly: Inhibition of macrophage foam cell formation in mouse RAW264.7 cells assessed as reduction in ox-LDL induced total cholesterol level at 10 uM measured after 48 hrs. Type of data set: functional, cell-based.
Data set [6] relates to HepG2. Briefly: Lipid lowering activity in human HepG2 cells assessed as decrease in OA-induced TG accumulation at 10 uM incubated for 24 hrs. It counts as functional, cell-based.
In data set [7] the test system is RAW264.7. Briefly: Effect on LXR mRNA expression in mouse RAW264.7 cells at 10 uM incubated for 48 hrs by qPCR analysis. Type of data set: cell-based. The conditions noted are these: raw264.7, 48 h.
Data set [8] deals with Mus musculus. Briefly: Induction of hepatic steatosis in C57BL/6 mouse assessed as accumulation of serum triglyceride level at 50 mg/kg/day, ig administered for 7 days. The conditions noted are these: in vivo, po, 168 h. It counts as organism-based.
The subject of data set [9] is RAW264.7. Put plainly: Agonist activity at LXR in mouse RAW264.7 cells assessed as increase in ABCA1 mRNA expression at 10 uM incubated for 48 hrs by qPCR analysis. Type of data set: cell-based.
The subject of data set [10] is Mus musculus. Put plainly: Anti-atherosclerotic activity in high fat diet-induced C57BL/6 mouse model of hypercholesterolemia assessed as increase in ABCG1 mRNA expression in small intestine at 10 to 40 mg/kg, po administered for 12 weeks by RT-qPCR analysis. Type of data set: functional, organism-based.
The subject of data set [11] is Mus musculus. Put plainly: Anti-atherosclerotic activity in high fat diet-induced C57BL/6 mouse model of hypercholesterolemia assessed as reduction in ALT level at 10 to 40 mg/kg, po administered for 12 weeks. It counts as functional, organism-based.
Data set [12] concerns HepG2. Put plainly: Effect on TG accumulation in human HepG2 cells at 10 uM incubated for 24 hrs. It counts as ADME, cell-based. The conditions noted are these: hepg2, 24 h.
The subject of data set [13] is Mus musculus. Briefly: Anti-atherosclerotic activity in high fat diet-induced C57BL/6 mouse model of hypercholesterolemia assessed as increase in ABCG8 mRNA expression in ileum at 10 to 40 mg/kg, po administered for 12 weeks by RT-qPCR analysis. It counts as functional, organism-based.
Data set [14] is described as follows: Selectivity index, ratio of compound effect for agonist activity at human LXRalpha to compound effect for agonist activity at […].
Data set [15] concerns the target T2, Oxysterols receptor LXR-alpha (Homo sapiens) (UniProt Q13133).
T2 sequence (whole entry): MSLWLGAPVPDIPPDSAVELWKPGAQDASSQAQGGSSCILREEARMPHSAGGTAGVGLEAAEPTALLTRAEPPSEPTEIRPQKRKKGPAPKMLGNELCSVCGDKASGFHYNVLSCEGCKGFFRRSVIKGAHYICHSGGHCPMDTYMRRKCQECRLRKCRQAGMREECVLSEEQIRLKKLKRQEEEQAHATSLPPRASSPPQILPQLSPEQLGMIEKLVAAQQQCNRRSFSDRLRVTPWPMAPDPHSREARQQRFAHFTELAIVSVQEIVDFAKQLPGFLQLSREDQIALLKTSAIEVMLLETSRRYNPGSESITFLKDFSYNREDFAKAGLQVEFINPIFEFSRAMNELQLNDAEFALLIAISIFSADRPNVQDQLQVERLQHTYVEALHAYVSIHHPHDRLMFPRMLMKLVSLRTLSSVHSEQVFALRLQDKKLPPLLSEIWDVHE
Briefly: Agonist activity at human LXRalpha transfected in HEK293T cells at 10 uM incubated for 20 hrs in presence of LXR antagonist SR9243 by luciferase reporter gene assay relative to control. Type of data set: cell-based.

Data set [16] relates to Mus musculus. Briefly: Anti-atherosclerotic activity in high fat diet-induced C57BL/6 mouse model of hypercholesterolemia assessed as reduction in hepatic triglyceride level at 10 to 40 mg/kg, po administered for 12 weeks. It counts as functional, organism-based.
The test system of data set [17] is Mus musculus. Briefly: Anti-atherosclerotic activity in high fat diet-induced C57BL/6 mouse model of hypercholesterolemia assessed as increase in ABCG5 mRNA expression in liver at 10 to 40 mg/kg, po administered for 12 weeks by RT-qPCR analysis. Type of data set: functional, organism-based.
The species named for data set [18] is Mus musculus. Briefly: Agonist activity at LXR in C57BL/6 mouse PBMC assessed as increase in ABCA1 mRNA expression at 10 uM incubated for 48 hrs by qPCR analysis.
Data set [19] has as its system Mus musculus. Put plainly: Anti-atherosclerotic activity in high fat diet-induced C57BL/6 mouse model of hypercholesterolemia assessed as increase in ABCG8 mRNA expression in liver at 10 to 40 mg/kg, po administered for 12 weeks by RT-qPCR analysis. Type of data set: functional, organism-based.
The target of data set [20] is Liver X receptor (Homo sapiens) (UniProt Q13133+P55055). Put plainly: Agonist activity at LXR in human HepG2 cells assessed as increase in ABCA1 mRNA expression at 10 uM incubated for 24 hrs by qPCR analysis. Type of data set: cell-based.
Chain of Liver X receptor (Homo sapiens) (P55055 whole entry, looked up, one chain of several): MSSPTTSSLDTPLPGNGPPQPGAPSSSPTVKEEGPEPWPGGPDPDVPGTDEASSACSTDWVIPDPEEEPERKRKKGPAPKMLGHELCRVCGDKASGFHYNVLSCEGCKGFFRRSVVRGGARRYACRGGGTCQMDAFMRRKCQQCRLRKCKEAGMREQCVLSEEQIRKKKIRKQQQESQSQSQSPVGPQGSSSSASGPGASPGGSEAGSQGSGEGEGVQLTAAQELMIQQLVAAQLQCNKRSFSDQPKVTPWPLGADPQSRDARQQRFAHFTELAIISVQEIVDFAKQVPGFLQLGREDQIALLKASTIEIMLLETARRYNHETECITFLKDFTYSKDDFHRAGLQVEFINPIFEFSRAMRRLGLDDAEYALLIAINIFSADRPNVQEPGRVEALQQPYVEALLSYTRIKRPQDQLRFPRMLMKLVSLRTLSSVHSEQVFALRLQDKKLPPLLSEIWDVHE
In data set [21] the test system is Mus musculus. Briefly: Anti-atherosclerotic activity in high fat diet-induced C57BL/6 mouse model of hypercholesterolemia assessed as reduction in liver weight at 10 to 40 mg/kg, po administered for 12 weeks by H and E staining-based assay. Type of data set: functional, organism-based.
The subject of data set [22] is Mus musculus. Put plainly: Anti-atherosclerotic activity in high fat diet-induced C57BL/6 mouse model of hypercholesterolemia assessed as increase in ABCG5 mRNA expression in ileum at 10 to 40 mg/kg, po administered for 12 weeks by RT-qPCR analysis. It counts as functional, organism-based.

The source made the active and inactive calls. The calls are words filed in the database; no cut-off is given here.

As to `CC(C)C(=O)CC[C@@H](C)[C@H]1CC[C@H]2[C@@H]3C[C@H](O)[C@H]4C[C@H](O)CC[C@]4(C)[C@H]3CC[C@]12C`, the outcome with Mus musculus [1], in the data set with Mus musculus [2], in the data set on Mus musculus [4], in the data set on HepG2 [6], in the data set on RAW264.7 [9] and in the data set on Mus musculus [10] was Active. In addition, the result in the data set on Mus musculus [11], in the data set with Mus musculus [13], with Mus musculus [16], with Mus musculus [17], in the data set listed under Mus musculus [18] and in the data set on Mus musculus [19] was Active. Also, the outcome (in [20]; with Mus musculus [21]; in the data set with Mus musculus [22]) was Active. In addition, the inhibition result with PBMC and in the data set with RAW264.7 [5] was “Active” each time. Moreover, the fold change (FC) in data set [3] is 4.27. In addition, the Activity result in the data set on RAW264.7 [7], in the data set on Mus musculus [8] and with HepG2 [12] was “Non-Toxic” each time. In addition, the Ratio in data set [14] was 1. The result in data set [15] was inactive.

Values taken from ChEMBL document CHEMBL4359918, “Discovery of tissue selective liver X receptor agonists for the treatment of atherosclerosis without causing hepatic lipogenesis” (Eur J Med Chem, 2019).
